The values that follow come from patent publication US10947203B2, “1,4,5-substituted 1,2,3-triazole analogues as antagonists of the pregnane X receptor” (ST. JUDE CHILDREN'S RESEARCH HOSPITAL, priority 2016, dated 2021).

Each structure is given as a SMILES string.

The subject of assay [1] is primary human hepatocytes (PHHs). Nature of the assay: midazolam metabolism in primary human hepatocytes pretreated with hPXR agonist. In kind it is cell-based. The following applies: 10 μM test compound; 72 hr pretreatment with DMSO, 1.6 μM RIF, 0.5 or 5 μM PTX; then 3.3 μM MDZ 4 h; FIG. 1A.
Procedure: (§1) The concentrations of 1′-OH MDZ (MDZ metabolite) in the media of each pretreatment condition were determined using LC/MS/MS as described in the Examples. […] PHHs were also treated with 1 μM of PTX in the absence and presence of 10 μM of the test compound, and then the concentrations of major PTX metabolites, 3-OH PTX (by CYP3A4) and 6α-OH PTX (by CYP2C8), were determined using LC/MS/MS at 24 hr and 48 hr of treatment, respectively.
(§2) Midazolam and 1-OH midazolam were from BD Gentest. Midazolam-D4 maleate (internal standard, IS) was from Cerilliant; Paclitaxel and 3′-p-hydroxypaclitaxel were from Sigma; and 6u-hydroxy Paclitaxel was from Cayman Chemical. 100 μl of reaction medium at each different time point was collected and 200 μl of acetonitrile containing IS was added. This solution was then vigorously mixed for 10 min and centrifuged at 10,000 rpm for 10 min. Calibration and quality control samples were prepared. 5 μl of the samples was injected onto a Waters Acquity UPLC BEH C18 column (2.1x 50 mm, 1.7 μm), using a Waters Acquity UPLC system. Chromatographic separation was performed by gradient elution at a constant flow rate of 1 mL/min for 15 min. The gradient consisted of 0.1% formic acid water (mobile phase A) and methanol (mobile phase B). […] Nitrogen was applied as curtain, collision and drying gas at 60 psi. […]
For assay [2], the system named is RIF-induced metabolism of the anesthetic (CYP3A11). Nature of the assay: loss of righting reflex (LORR) assay in hPXR-tg mice. It is filed as in vivo, mouse. The following applies: RIF 10 mg/kg plus test compound 200 mg/kg every 24 h for three days, FIG. 5. The method, then:
Loss of righting reflex (LORR) duration was recorded as described in Examples to measure metabolism of the anesthetic ([…]) in hPXR-tg, mice before and after treatment with vehicle, RIF, and RIF plus the test compound as indicated. Each data point represents LORR duration in an individual mouse; lines indicate LORR duration change in individual mouse before and after treatment. P values indicate comparison of values by paired t test.
Mice were intraperitoneally injected with 250 mg/kg of 2,2,2-tribromoethanol, which is metabolically cleared only via mouse CYP3A11. After the mice lost their righting reflex, they were placed on their backs under a heat lamp. The duration of LORR was measured as the time from the start of LORR to recovery (i.e., when mice could right themselves after being placed on their backs twice within 1 min). A baseline LORR duration was established for each mouse at the administered dose of 2,2,2-tribromoethanol. […] The paired Student's t-test was used to compare LORR duration between baseline and after treatment. A P value <0.05 was considered to indicate a significant difference between compared groups.

The subject of assay [3] is hPXR-mediated increase in CYP3A expression. Put plainly: liver Cyp3a11 mRNA and CYP3A protein in hPXR-tg mice. The conditions noted are these: RIF 10 mg/kg plus test compound 200 mg/kg, 72 h, FIGS. 3A-3C. In kind it is in vivo, mouse. The method, then: Briefly, mouse liver Cyp3a11 mRNA was analyzed by real-time PCR in hPXR-tg mice treated with vehicle control (Vehicle), RIF (10 mg/kg) or RIF (10 mg/kg) plus test compound (200 mg/kg) for 72 h. Each data point represents the level of Cyp3a11 mRNA (FIG. 3A) or protein (FIG. 3B) in an individual mouse; lines indicate the mean value for 3-7 mice per group.
hPXR-tg mice were generated previously (Xie et al., 2000). Five mice in each group were dosed orally with vehicle control or 10 mg/kg RIF, every 24 h for three days. Eight hours after the last dose, the animals were euthanized by C02 and liver tissues were harvested. A piece of each liver was preserved in RNAlater solution (Invitrogen) at 4° C. for mRNA isolation. The remaining tissue was instantly frozen in liquid nitrogen and stored at −80° C. for total protein extraction. […]

In assay [4] the test system is primary human hepatocytes (PHHs). Put plainly: paclitaxel metabolism in primary human hepatocytes. It is filed as cell-based. The conditions noted are these: 1 μM PTX with 10 μM test compound; 24 and 48 hr; FIGS. 1B, 1C.
Procedure: as §1, §2
The test system of assay [5] is hPXR-mediated CYP3A4 promoter reporter activity. Put plainly: CYP3A4 promoter reporter activity in hPXR-CYP3A4-luc reporter mice (bioluminescence imaging). It is filed as in vivo, mouse. The conditions noted are these: RIF 10 mg/kg plus test compound 150 mg/kg every 24 h for 2 days; imaging 10 h after last treatment; FIG. 4.
Procedure: Individual mouse received 3 rounds of sequential treatment of vehicle control (Vehicle), RIF (10 mg/kg) and RIF (10 mg/kg) plus the test compound (150 mg/kg) every 24 h for 2 days, respectively, with a washout period of 72-hour between two rounds of treatment. The luciferase activity in these reporter mice was recorded by bioluminescence imaging 10 h after the last treatment of each round, and the induction of CYP3A4 promoter reporter activity was calculated as described in Examples. Each data point represents the induction of CYP3A4 promoter reporter activity by the treatment in an individual mouse, and dos lines indicate the CYP3A4 promoter reporter activity change in individual mouse after following round of treatment. p values are indicated between the two treatment compared by paired t test.
10 hours after the last treatment of each round, the mice were imaged as described above. Uniform regions of interest were drawn around the liver, and total photon flux was analyzed with Living Image 3.2 software (Xenogen). The induction of CYP3A4-luc reporter activity was calculated using the imaging from the same mouse as follows: induction rate=total photon flux (after treatment)/total photon flux (before treatment).

On to `COc1ccc(OC)c(-n2nnc(S(=O)(=O)c3ccc(C(C)(C)C)cc3)c2C)c1` [4-((4-(tert-butyl)phenyl)sulfonyl)-1-(2,5-dimethoxyphenyl)-5-methyl-1H-1,2,3-triazole], for which the “metabolism of MDZ (1′-OH MDZ concentration in media)” value in assay [1] was “essentially blocked”. Also, the “RIF-induced metabolism of the anesthetic, as determined by LORR duration” value in assay [2] was “significantly inhibited”. The “hPXR-mediated increase in CYP3A expression (liver Cyp3a11 mRNA, CYP3A protein)” value in assay [3] is on record as “inhibits the hPXR-mediated increase in CYP3A expression”. In assay [4], the “metabolism of PTX to 3-OH PTX and 6α-OH PTX” value is given as “effectively blocked”. Further, the “RIF-induced expression of the reporter under the control of the CYP3A4 promoter” value in assay [5] was “significantly reduced”.
